The test system of experiment [1] is IL-2 stimulated pSTAT5 in Tall-1 T cells. Put plainly: Cellular JAK3 potency assay: inhibition of IL-2 stimulated pSTAT5 in Tall-1 T cells. The format is cell-based, human. As to conditions: for IC50: Homo sapiens, read-out: Tall-1 (pIC50) (converted). The method in brief:
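Tall-1 human T cells were preincubated with compound for 1 h at 37° C, then stimulated with IL-2 (300 ng/ml final) for 30 min. STAT5 phosphorylation in lysates was read by AlphaLisa bead emission, and IC50 from inhibition curves is given as pIC50 (mean±SD).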

The target of experiment [2] is T1, JAK1 (Homo sapiens, UniProt P23458).
T1 construct: GST; purchased Life Technologies
Description: Biochemical JAK1 kinase assay (LanthaScreen). As to conditions: for Ki: read-out: JAK 1 (pKi) (converted). The procedure, abridged: (§1)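 Values are pKi, calculated by Cheng-Prusoff from IC50 obtained by robust 4-parameter fitting of percent inhibition. The kinase reaction used GFP-STAT1 peptide in HEPES pH 7.5 buffer with MgCl2, EGTA and Brij-35, ATP-initiated after compound pre-incubation, 1 h at ambient temperature.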
(TR-FRET usually uses a lanthanide donor and a delayed reading to cut background.)

Experiment [3] has as its target T2, JAK3 (Homo sapiens, UniProt P52333).
T2 sequence (P52333 1-1124): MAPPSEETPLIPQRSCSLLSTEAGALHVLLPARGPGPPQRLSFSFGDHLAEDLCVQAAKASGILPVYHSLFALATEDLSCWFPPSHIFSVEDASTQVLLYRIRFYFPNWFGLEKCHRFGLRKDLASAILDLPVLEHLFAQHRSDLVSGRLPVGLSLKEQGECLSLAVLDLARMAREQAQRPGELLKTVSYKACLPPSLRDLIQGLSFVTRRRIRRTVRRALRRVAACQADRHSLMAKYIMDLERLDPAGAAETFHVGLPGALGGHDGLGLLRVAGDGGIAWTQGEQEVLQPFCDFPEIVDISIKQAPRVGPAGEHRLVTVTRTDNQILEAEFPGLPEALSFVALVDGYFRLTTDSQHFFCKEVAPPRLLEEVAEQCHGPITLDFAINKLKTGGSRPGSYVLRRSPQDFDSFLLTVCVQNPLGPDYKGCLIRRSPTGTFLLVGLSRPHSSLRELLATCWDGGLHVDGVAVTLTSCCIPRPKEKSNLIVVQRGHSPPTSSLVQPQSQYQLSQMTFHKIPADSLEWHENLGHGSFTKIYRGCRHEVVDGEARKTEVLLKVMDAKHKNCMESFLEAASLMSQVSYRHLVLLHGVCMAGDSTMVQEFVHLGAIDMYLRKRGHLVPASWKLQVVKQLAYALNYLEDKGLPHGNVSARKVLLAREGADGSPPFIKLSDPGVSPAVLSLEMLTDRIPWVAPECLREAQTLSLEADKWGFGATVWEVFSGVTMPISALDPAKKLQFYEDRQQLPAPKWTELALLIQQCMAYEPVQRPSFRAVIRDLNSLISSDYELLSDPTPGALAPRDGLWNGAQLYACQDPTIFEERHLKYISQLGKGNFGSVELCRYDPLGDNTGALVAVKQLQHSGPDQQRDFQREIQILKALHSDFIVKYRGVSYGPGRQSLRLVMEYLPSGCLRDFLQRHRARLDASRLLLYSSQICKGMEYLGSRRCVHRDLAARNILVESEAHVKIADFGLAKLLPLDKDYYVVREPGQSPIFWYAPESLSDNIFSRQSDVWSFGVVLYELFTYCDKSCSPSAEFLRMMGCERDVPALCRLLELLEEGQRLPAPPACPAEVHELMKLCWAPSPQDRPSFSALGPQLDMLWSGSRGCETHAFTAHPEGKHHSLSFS
Description: Biochemical JAK3 kinase assay (LanthaScreen). Details: GST; purchased Life Technologies. As to conditions: for Ki: read-out: JAK 3 (pKi) (converted). The method in brief:
as §1

Experiment [4] addresses T3, JAK2 (Homo sapiens, UniProt O60674).
T3 construct: GST; purchased Life Technologies
Description: Biochemical JAK2 kinase assay (LanthaScreen). Particulars: for Ki: read-out: JAK 2 (pKi) (converted). The method in brief:
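pKi values derive from pIC50 via Cheng-Prusoff, with IC50 from a 4-parameter fit of percent-inhibition TR-FRET data using Tb-anti-pSTAT1 (pTyr701) detection. Compound, GST-JAK2 and GFP-STAT1 substrate were pre-incubated 1 h, then ATP started a 1 h ambient reaction (HEPES pH 7.5, 10 mM MgCl2, 1% DMSO).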

Experiment [5] addresses T4, Tyk2 (Homo sapiens, UniProt P29597).
T4 construct: GST; purchased Life Technologies
Put plainly: Biochemical Tyk2 kinase assay (LanthaScreen). Particulars: for Ki: read-out: Tyk 2 (pKi) (converted). The method in brief:
as §1

The mark [6] stands for this setting: TALL-1, IL-2 stimulated pSTAT5 in Tall-1 T cells.
Where [7] appears, read: selectivity: difference of pKi JAK3 and pKi JAK1.
Setting [8] is: TALL-1, IL-2 stimulated pSTAT5, Tall-1 T cells.
Setting [9] is: selectivity JAK3 over JAK1, difference of pKi.

The results in this text go back to patent publication US10392368B2, “Pyrazolo and triazolo bicyclic compounds as JAK kinase inhibitors” (THERAVANCE BIOPHARMA R&D IP, LLC, priority 2017, dated 2019).

Like-named read-outs stand apart in the source and are kept apart here.

T1 sequence (P23458 whole entry): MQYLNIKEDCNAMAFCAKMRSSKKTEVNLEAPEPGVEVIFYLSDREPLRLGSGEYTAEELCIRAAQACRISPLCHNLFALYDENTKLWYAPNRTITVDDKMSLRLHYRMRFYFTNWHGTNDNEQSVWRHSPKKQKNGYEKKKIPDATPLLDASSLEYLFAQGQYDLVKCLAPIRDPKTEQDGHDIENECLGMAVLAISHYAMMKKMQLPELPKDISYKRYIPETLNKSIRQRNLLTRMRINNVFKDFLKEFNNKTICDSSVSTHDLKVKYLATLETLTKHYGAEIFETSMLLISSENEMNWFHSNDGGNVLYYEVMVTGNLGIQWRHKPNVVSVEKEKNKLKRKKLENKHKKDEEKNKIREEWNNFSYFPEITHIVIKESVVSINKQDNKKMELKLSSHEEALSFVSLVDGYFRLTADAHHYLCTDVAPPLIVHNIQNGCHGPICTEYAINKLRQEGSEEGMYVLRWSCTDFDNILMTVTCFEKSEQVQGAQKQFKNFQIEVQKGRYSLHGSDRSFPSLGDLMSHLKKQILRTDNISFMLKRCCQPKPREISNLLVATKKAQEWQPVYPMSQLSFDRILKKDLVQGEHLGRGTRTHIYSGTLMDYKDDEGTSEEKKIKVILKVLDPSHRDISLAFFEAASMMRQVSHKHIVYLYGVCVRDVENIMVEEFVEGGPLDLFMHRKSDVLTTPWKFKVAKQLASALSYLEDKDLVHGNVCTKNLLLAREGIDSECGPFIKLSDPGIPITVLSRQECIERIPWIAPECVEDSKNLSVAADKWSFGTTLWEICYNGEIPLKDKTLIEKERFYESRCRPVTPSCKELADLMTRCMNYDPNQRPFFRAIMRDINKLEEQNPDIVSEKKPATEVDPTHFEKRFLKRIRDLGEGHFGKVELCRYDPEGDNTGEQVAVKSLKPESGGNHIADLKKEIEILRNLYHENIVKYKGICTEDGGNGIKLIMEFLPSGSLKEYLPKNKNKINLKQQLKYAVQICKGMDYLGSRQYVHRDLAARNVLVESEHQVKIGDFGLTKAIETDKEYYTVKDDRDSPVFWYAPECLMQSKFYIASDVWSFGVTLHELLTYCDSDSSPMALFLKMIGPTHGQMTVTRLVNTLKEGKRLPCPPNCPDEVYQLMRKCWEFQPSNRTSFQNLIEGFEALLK
T3 sequence (O60674 whole entry): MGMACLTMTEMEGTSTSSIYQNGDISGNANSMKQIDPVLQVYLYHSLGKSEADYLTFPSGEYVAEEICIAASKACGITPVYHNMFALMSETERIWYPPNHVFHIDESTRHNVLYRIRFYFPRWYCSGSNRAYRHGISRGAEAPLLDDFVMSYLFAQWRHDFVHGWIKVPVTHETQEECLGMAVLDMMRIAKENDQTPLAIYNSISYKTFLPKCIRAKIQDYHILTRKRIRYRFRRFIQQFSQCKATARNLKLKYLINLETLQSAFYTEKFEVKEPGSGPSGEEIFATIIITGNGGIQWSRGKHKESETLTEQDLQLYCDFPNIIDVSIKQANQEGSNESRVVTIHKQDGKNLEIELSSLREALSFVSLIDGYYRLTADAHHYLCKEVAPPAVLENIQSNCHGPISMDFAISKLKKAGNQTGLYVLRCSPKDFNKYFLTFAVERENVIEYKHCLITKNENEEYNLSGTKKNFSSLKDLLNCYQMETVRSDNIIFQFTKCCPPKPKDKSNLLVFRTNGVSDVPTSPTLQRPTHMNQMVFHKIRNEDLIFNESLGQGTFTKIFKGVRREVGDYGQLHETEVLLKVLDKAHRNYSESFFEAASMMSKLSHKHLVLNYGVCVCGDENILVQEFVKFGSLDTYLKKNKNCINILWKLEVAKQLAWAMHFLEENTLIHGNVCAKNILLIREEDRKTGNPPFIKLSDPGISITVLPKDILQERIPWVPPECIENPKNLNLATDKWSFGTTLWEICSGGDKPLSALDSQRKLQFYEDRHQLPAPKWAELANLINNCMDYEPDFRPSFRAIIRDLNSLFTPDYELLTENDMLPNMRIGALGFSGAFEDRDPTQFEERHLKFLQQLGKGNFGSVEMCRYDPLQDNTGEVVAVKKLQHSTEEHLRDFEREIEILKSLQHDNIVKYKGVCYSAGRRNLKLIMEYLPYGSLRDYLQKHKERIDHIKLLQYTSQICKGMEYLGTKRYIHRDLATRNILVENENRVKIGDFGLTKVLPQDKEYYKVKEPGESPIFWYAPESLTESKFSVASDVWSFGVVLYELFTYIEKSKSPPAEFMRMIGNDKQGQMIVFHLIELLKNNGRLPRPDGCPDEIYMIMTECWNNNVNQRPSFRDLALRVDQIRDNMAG
T4 sequence (P29597 whole entry): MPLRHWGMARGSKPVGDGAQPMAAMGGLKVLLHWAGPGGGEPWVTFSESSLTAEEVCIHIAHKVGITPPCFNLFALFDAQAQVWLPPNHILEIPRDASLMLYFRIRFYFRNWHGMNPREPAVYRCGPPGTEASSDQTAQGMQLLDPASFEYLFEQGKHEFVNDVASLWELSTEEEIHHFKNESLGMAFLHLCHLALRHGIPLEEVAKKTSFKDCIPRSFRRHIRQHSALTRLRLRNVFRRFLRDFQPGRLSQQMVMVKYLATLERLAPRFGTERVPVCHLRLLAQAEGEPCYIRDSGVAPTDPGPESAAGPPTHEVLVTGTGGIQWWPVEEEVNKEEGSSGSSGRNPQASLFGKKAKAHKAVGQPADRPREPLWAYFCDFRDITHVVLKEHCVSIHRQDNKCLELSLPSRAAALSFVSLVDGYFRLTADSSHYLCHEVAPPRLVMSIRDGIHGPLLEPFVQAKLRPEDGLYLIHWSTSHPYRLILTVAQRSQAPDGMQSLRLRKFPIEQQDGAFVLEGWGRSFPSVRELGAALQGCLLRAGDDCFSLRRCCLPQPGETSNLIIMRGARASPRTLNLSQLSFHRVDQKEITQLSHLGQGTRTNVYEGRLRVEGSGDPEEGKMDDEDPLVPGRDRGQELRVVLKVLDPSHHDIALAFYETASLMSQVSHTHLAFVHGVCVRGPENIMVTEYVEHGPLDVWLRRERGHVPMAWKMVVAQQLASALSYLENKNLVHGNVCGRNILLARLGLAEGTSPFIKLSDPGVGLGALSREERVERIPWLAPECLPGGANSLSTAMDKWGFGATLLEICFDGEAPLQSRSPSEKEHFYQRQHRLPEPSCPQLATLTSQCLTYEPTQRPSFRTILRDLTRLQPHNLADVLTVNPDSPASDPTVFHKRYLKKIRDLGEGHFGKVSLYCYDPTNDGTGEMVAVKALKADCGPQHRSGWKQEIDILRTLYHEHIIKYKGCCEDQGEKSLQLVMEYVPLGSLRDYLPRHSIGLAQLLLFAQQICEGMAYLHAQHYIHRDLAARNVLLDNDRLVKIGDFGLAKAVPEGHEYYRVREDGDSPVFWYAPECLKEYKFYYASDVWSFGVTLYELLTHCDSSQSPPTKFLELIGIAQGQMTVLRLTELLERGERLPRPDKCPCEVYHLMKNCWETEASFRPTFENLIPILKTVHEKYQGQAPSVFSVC

With `C=CC(=O)N1CC(COc2nc(-c3ccc(O)c(F)c3)cc3[nH]ncc23)C1` [Compound 3-37], in experiment [1] (setting [6]), the IC50 was less than 31.6 nM. Moreover, the Ki in experiment [2] is more than 100 nM; in experiment [3], less than 0.1 nM; in experiment [4], 10 to 100 nM; in experiment [5], more than 100 nM. Moreover, the “JAK3 (pKi)-JAK1 (pKi)” value in experiment [3] (setting [7]) is listed as “A (a value of 3 or above)”.

In the case of `C=CC(=O)N1CCSCC1C(=O)Nc1cc(-c2ccc(O)cc2)cc2[nH]ncc12` (stereo not drawn) [Compound 12-66], the IC50 in experiment [1] (setting [8]) is 31.6 to 200 nM. For the same molecule, the Ki in experiment [2] is more than 100 nM; in experiment [3] it was 0.1 to 1 nM; in experiment [4], more than 100 nM; in experiment [5], more than 100 nM. The “JAK3 (pKi)-JAK1 (pKi)” value in experiment [3] (setting [9]) is “A (a value of 3 or above)”.

On to `C=CC(=O)N1CC(COc2cc(-c3ccc(O)c(C)c3)cc3[nH]ncc23)C1` [Compound 18-9], for which, in experiment [1] (setting [8]), the IC50 is less than 31.6 nM. Also, the Ki in experiment [2] was more than 100 nM; in experiment [3] it was less than 0.1 nM; in experiment [4] it was more than 100 nM; in experiment [5] it was more than 100 nM. Besides, in experiment [3] (setting [9]), the “JAK3 (pKi)-JAK1 (pKi)” value is on record as “A (a value of 3 or above)”.

Turning to `C=CC(=O)N1CC[C@H](Oc2nc(-c3ccc(O)c(F)c3)cc3[nH]nc(C)c23)C1` [Compound 1-36], in experiment [1] (setting [6]), the IC50 is less than 31.6 nM. For the same molecule, the Ki in experiment [2] was 10 to 100 nM; in experiment [3], 0.1 to 1 nM; in experiment [4] it was 10 to 100 nM; in experiment [5] it was more than 100 nM. The “JAK3 (pKi)-JAK1 (pKi)” value in experiment [3] (setting [7]) was “B (a value of 2.3 to 3)”.

`CN(C)C/C=C/C(=O)N1CC(OCc2cc(-c3ccc(O)c(Cl)c3)cc3[nH]ncc23)C1` [Compound 16-1]: in experiment [1] (IL-2 stimulated pSTAT5, Tall-1 T cells), the “Tall-1 (pIC50)” value is “B (a pIC50 value between 6.7 (included) and 7.5 (IC50 between 200 nM and 32 nM))”. Also, the “JAK 1 (pKi)” value in experiment [2] is recorded as “E (a pKi value of 7 or below (Ki of 100 nM or above))”. Moreover, in experiment [3], the “JAK 3 (pKi)” value is reported as “A (a pKi value≥10 (Ki≤0.1 nM))”. For the same molecule, the “JAK3 (pKi)-JAK1 (pKi)” value in experiment [3] (setting [9]) is given as “A (a value of 3 or above)”. Further, the “JAK 2 (pKi)” value in experiment [4] is on record as “E (a pKi value of 7 or below (Ki of 100 nM or above))”. Further, in experiment [5], the “Tyk 2 (pKi)” value is recorded as “E (a pKi value of 7 or below (Ki of 100 nM or above))”.

As to `Cc1cc(O)c(F)cc1-c1cc(O[C@H]2CCN(C(=O)/C=C/CN(C)C)C2)c2cn[nH]c2c1` [Compound 1-29], the IC50 in experiment [1] (setting [6]) was 31.6 to 200 nM. In addition, the Ki in experiment [2] is 10 to 100 nM; in experiment [3] it was 0.1 to 1 nM; in experiment [4], 10 to 100 nM; in experiment [5], more than 100 nM. For the same molecule, the “JAK3 (pKi)-JAK1 (pKi)” value in experiment [3] (setting [7]) is recorded as “B (a value of 2.3 to 3)”.

For the molecule `CN(C)C/C=C/C(=O)N1CC[C@H](Sc2cc(-c3ccc(O)cc3)cc3[nH]ncc23)C1` [Compound 12-1], the IC50 in experiment [1] (setting [8]) is 31.6 to 200 nM. Further, the Ki in experiment [2] was more than 100 nM; in experiment [3], 0.1 to 1 nM; in experiment [4] it was 10 to 100 nM; in experiment [5] it was more than 100 nM. The “JAK3 (pKi)-JAK1 (pKi)” value in experiment [3] (setting [9]) was “A (a value of 3 or above)”.

With `C=CC(=O)N1CC(COc2cc(-c3ccc(O)c(F)c3)cc3[nH]ncc23)(OC)C1` [Compound 3-75], the “Tall-1 (pIC50)” value in experiment [1] (IL-2 stimulated pSTAT5 in Tall-1 T cells) is recorded as “A (a pIC50 value≥7.5 (IC50≤32 nM))”. The “JAK 1 (pKi)” value in experiment [2] is “E (a pKi value of 7 or below (Ki of 100 nM or above))”. Moreover, the “JAK 3 (pKi)” value in experiment [3] is “B (a pKi value between 9 and 10 (Ki between 1 nM and 0.1 nM))”. Moreover, in experiment [3] (setting [7]), the “JAK3 (pKi)-JAK1 (pKi)” value is given as “A (a value of 3 or above)”. The “JAK 2 (pKi)” value in experiment [4] was “E (a pKi value of 7 or below (Ki of 100 nM or above))”. Further, the “Tyk 2 (pKi)” value in experiment [5] is on record as “E (a pKi value of 7 or below (Ki of 100 nM or above))”.

For `CN(C)C/C=C/C(=O)N1CC(C#N)(COc2nc(-c3ccc(O)cc3)cc3[nH]ncc23)C1` [Compound 3-102], the IC50 in experiment [1] (setting [6]) is 31.6 to 200 nM. The Ki is more than 100 nM in experiment [2], 0.1 to 1 nM in experiment [3], more than 100 nM in experiment [4] and more than 100 nM in experiment [5]. For the same molecule, in experiment [3] (setting [7]), the “JAK3 (pKi)-JAK1 (pKi)” value is on record as “A (a value of 3 or above)”.

With `C=CC(=O)N1C[C@@H](Oc2cc(-c3ccc(O)cc3)nc3[nH]ncc23)C[C@H]1C` [Compound 1-26], the IC50 in experiment [1] (setting [6]) was 31.6 to 200 nM. Moreover, the Ki in experiment [2] is more than 100 nM; in experiment [3], less than 0.1 nM; in experiment [4], more than 100 nM; in experiment [5], more than 100 nM. In addition, the “JAK3 (pKi)-JAK1 (pKi)” value in experiment [3] (setting [7]) is “A (a value of 3 or above)”.
